For one compound, IC50 results are on record in BindingDB's records for doi:10.1016/j.bmcl.2003.07.021 (Vicuron Pharmaceuticals, 2003).

The target in this assay is DNA gyrase (Escherichia coli). Nature of the assay: Inhibitory concentration against Escherichia coli by Escherichia coli DNA gyrase gel-based supercoil assay.

For `CCOC(=O)c1cn(CC)c2cc(N3CCN(C(=O)c4ccc(N5C[C@H](CNC(C)=O)OC5=O)cc4F)CC3)c(F)cc2c1=O` [7-(4-{4-[(S)-5-(Acetylamino-methyl)-2-oxo-oxazolidin-3-yl]-2-fluoro-benzoyl}-piperazin-1-yl)-1-ethyl-6-fluoro-4-oxo-1,4-dihydro-quinoline-3-carboxylic acid ethyl ester], the 50% inhibitory concentration (IC50) (as a rule, the concentration that gives 50% inhibition) is 12.5 µM.
